# Columns and labels:
# Experiment in all cases: Test D controlled growth environment herbicide test, pre- and postemergence
# Assay type in all cases: in vivo
# [1] = tested on: chickweed (common chickweed, Stellaria media)
# Summary of the method: (§1)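 Rating is visual, 0–100 scale (100 = complete control), made against untreated plants 14–21 d after treatment in controlled growth conditions. Postemergence sprays went onto 1- to 4-leaf plants in peat medium; preemergence sprays onto silt loam after sowing; formulation included a surfactant.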
# [2] = tested on: windgrass (Apera spica-venti)
# Summary of the method: as §1
# [3] = tested on: oilseed rape (Brassica napus)
# Summary of the method: as §1
# [4] = tested on: ryegrass, Italian (Italian ryegrass, Lolium multiflorum)
# Summary of the method: as §1
# [5] = tested on: bromegrass, downy (downy bromegrass, Bromus tectorum)
# Summary of the method: as §1
# [6] = tested on: field violet (Viola arvensis)
# Summary of the method: as §1
# [7] = tested on: wheat, winter (winter wheat, Triticum aestivum)
# Summary of the method: as §1
# [8] = tested on: chamomile (scentless chamomile, Matricaria inodora)
# Summary of the method: as §1
# [9] = tested on: foxtail, green (green foxtail, Setaria viridis)
# Summary of the method: as §1
# [10] = tested on: lambsquarters (Chenopodium album)
# Summary of the method: as §1
# [11] = tested on: canarygrass (Phalaris minor)
# Summary of the method: as §1
# [12] = tested on: buckwheat, wild (wild buckwheat, Polygonum convolvulus)
# Summary of the method: as §1
# [13] = tested on: galium (catchweed bedstraw, Galium aparine)
# Summary of the method: as §1
# [14] = tested on: deadnettle (henbit deadnettle, Lamium amplexicaule)
# Summary of the method: as §1
# [15] = Postemergence, 31 g ai/ha, scale 0 to 100 (0 no effect, 100 complete control)
# [16] = Postemergence, 125 g ai/ha, visual rating on scale 0 (no effect) to 100 (complete control), 14 to 21 d
# [17] = Postemergence, 250 g ai/ha, scale 0 to 100 (0 no effect, 100 complete control)
# [18] = Preemergence, 62 g ai/ha, scale 0 to 100 (0 no effect, 100 complete control)
# [19] = Preemergence, 125 g ai/ha, scale 0 to 100 (0 no effect, 100 complete control)
# [20] = Preemergence, 250 g ai/ha, scale 0 to 100, 0 no effect, 100 complete control
# [21] = postemergence, 62 g ai/ha, scale 0 to 100, 0 no effect, 100 complete control
smiles,measurement,setting,value
COC(=O)Oc1c(C)nn(C)c(=O)c1-c1c(C)sc2ccc(C)cc12 [Compound 80],Chickweed plant response rating,[1]; [15],90
same,"Plant response rating, Chickweed",[1]; [16],100
same,"Plant response rating, Chickweed",[1]; [17],100
same,"Plant response rating (scale of 0 to 100), Chickweed","[1]; Preemergence, 31 g ai/ha",100
same,"Plant response rating, Chickweed",[1]; [18],100
same,"Plant response rating, Chickweed",[1]; [19],100
same,"Plant response rating, Chickweed",[1]; [20],100
same,"Plant response rating, Chickweed",[1]; [21],100
same,Windgrass plant response rating,[2]; [15],75
same,"Plant response rating, Windgrass",[2]; [16],95
same,"Plant response rating, Windgrass",[2]; [17],98
same,"Plant response rating (scale of 0 to 100), Windgrass","[2]; Preemergence, 31 g ai/ha",75
same,"Plant response rating, Windgrass",[2]; [18],90
same,"Plant response rating, Windgrass",[2]; [19],95
same,"Plant response rating, Windgrass",[2]; [20],98
same,"Plant response rating, Windgrass",[2]; [21],90
same,Oilseed Rape plant response rating,[3]; [15],15
same,"Plant response rating, Oilseed Rape",[3]; [16],65
same,"Plant response rating, Oilseed Rape",[3]; [17],75
same,"Plant response rating (scale of 0 to 100), Oilseed Rape","[3]; Preemergence, 31 g ai/ha",35
same,"Plant response rating, Oilseed Rape",[3]; [18],35
same,"Plant response rating, Oilseed Rape",[3]; [19],35
same,"Plant response rating, Oilseed Rape",[3]; [20],40
same,"Plant response rating, Oilseed Rape",[3]; [21],55
same,"Ryegrass, Italian plant response rating",[4]; [15],85
same,"Plant response rating, Ryegrass, Italian",[4]; [16],98
same,"Plant response rating, Ryegrass, Italian",[4]; [17],100
same,"Plant response rating (scale of 0 to 100), Ryegrass, Italian","[4]; Preemergence, 31 g ai/ha",90
same,"Plant response rating, Ryegrass, Italian",[4]; [18],90
same,"Plant response rating, Ryegrass, Italian",[4]; [19],95
same,"Plant response rating, Ryegrass, Italian",[4]; [20],100
same,"Plant response rating, Ryegrass, Italian",[4]; [21],95
same,"Bromegrass, Downy plant response rating",[5]; [15],55
same,"Plant response rating, Bromegrass, Downy",[5]; [16],70
same,"Plant response rating, Bromegrass, Downy",[5]; [17],75
same,"Plant response rating (scale of 0 to 100), Bromegrass, Downy","[5]; Preemergence, 31 g ai/ha",30
same,"Plant response rating, Bromegrass, Downy",[5]; [18],35
same,"Plant response rating, Bromegrass, Downy",[5]; [19],75
same,"Plant response rating, Bromegrass, Downy",[5]; [20],85
same,"Plant response rating, Bromegrass, Downy",[5]; [21],65
same,Field Violet plant response rating,[6]; [15],90
same,"Plant response rating, Field Violet",[6]; [16],95
same,"Plant response rating, Field Violet",[6]; [17],100
same,"Plant response rating (scale of 0 to 100), Field Violet","[6]; Preemergence, 31 g ai/ha",55
same,"Plant response rating, Field Violet",[6]; [18],95
same,"Plant response rating, Field Violet",[6]; [19],100
same,"Plant response rating, Field Violet",[6]; [20],95
same,"Plant response rating, Field Violet",[6]; [21],85
same,"Wheat, Winter plant response rating",[7]; [15],0
same,"Plant response rating, Wheat, Winter",[7]; [16],5
same,"Plant response rating, Wheat, Winter",[7]; [17],15
same,"Plant response rating (scale of 0 to 100), Wheat, Winter","[7]; Preemergence, 31 g ai/ha",0
same,"Plant response rating, Wheat, Winter",[7]; [18],0
same,"Plant response rating, Wheat, Winter",[7]; [19],0
same,"Plant response rating, Wheat, Winter",[7]; [20],20
same,"Plant response rating, Wheat, Winter",[7]; [21],0
same,Chamomile plant response rating,[8]; [15],80
same,"Plant response rating, Chamomile",[8]; [16],100
same,"Plant response rating, Chamomile",[8]; [17],100
same,"Plant response rating (scale of 0 to 100), Chamomile","[8]; Preemergence, 31 g ai/ha",95
same,"Plant response rating, Chamomile",[8]; [18],100
same,"Plant response rating, Chamomile",[8]; [19],100
same,"Plant response rating, Chamomile",[8]; [20],100
same,"Plant response rating, Chamomile",[8]; [21],95
same,"Foxtail, Green plant response rating",[9]; [15],70
same,"Plant response rating, Foxtail, Green",[9]; [16],90
same,"Plant response rating, Foxtail, Green",[9]; [17],95
same,"Plant response rating (scale of 0 to 100), Foxtail, Green","[9]; Preemergence, 31 g ai/ha",20
same,"Plant response rating, Foxtail, Green",[9]; [18],80
same,"Plant response rating, Foxtail, Green",[9]; [19],100
same,"Plant response rating, Foxtail, Green",[9]; [20],100
same,"Plant response rating, Foxtail, Green",[9]; [21],90
same,Lambsquarters plant response rating,[10]; [15],95
same,"Plant response rating, Lambsquarters",[10]; [16],100
same,"Plant response rating, Lambsquarters",[10]; [17],100
same,"Plant response rating (scale of 0 to 100), Lambsquarters","[10]; Preemergence, 31 g ai/ha",100
same,"Plant response rating, Lambsquarters",[10]; [18],100
same,"Plant response rating, Lambsquarters",[10]; [19],100
same,"Plant response rating, Lambsquarters",[10]; [20],100
same,"Plant response rating, Lambsquarters",[10]; [21],100
same,Canarygrass plant response rating,[11]; [15],55
same,"Plant response rating, Canarygrass",[11]; [16],85
same,"Plant response rating, Canarygrass",[11]; [17],90
same,"Plant response rating (scale of 0 to 100), Canarygrass","[11]; Preemergence, 31 g ai/ha",85
same,"Plant response rating, Canarygrass",[11]; [18],90
same,"Plant response rating, Canarygrass",[11]; [19],90
same,"Plant response rating, Canarygrass",[11]; [20],100
same,"Plant response rating, Canarygrass",[11]; [21],80
same,"Buckwheat, Wild plant response rating",[12]; [15],100
same,"Plant response rating, Buckwheat, Wild",[12]; [16],100
same,"Plant response rating, Buckwheat, Wild",[12]; [17],100
same,"Plant response rating (scale of 0 to 100), Buckwheat, Wild","[12]; Preemergence, 31 g ai/ha",0
same,"Plant response rating, Buckwheat, Wild",[12]; [18],25
same,"Plant response rating, Buckwheat, Wild",[12]; [19],20
same,"Plant response rating, Buckwheat, Wild",[12]; [20],20
same,"Plant response rating, Buckwheat, Wild",[12]; [21],100
same,Galium plant response rating,[13]; [15],90
same,"Plant response rating, Galium",[13]; [16],95
same,"Plant response rating, Galium",[13]; [17],100
same,"Plant response rating (scale of 0 to 100), Galium","[13]; Preemergence, 31 g ai/ha",25
same,"Plant response rating, Galium",[13]; [18],40
same,"Plant response rating, Galium",[13]; [19],80
same,"Plant response rating, Galium",[13]; [20],90
same,"Plant response rating, Galium",[13]; [21],95
same,Deadnettle plant response rating,[14]; [15],35
same,"Plant response rating, Deadnettle",[14]; [16],35
same,"Plant response rating, Deadnettle",[14]; [17],50
same,"Plant response rating (scale of 0 to 100), Deadnettle","[14]; Preemergence, 31 g ai/ha",55
same,"Plant response rating, Deadnettle",[14]; [18],65
same,"Plant response rating, Deadnettle",[14]; [19],70
same,"Plant response rating, Deadnettle",[14]; [20],75
same,"Plant response rating, Deadnettle",[14]; [21],25

# Source: patent US10597388B2, “Pyridazinone herbicides” (FMC CORPORATION, priority 2014, dated 2020)
